Measured values taken from PubChem BioAssay AID1963862 (Molecular Pharmacology Branch, DTP, NCI, 2024).

System: KRAS patient-derived spheroids with HUVEC/MSC, viability
Test: Anticancer human tumor 941728-121-R-J1-PDC patient-derived lung adenocarcinoma cell line growth inhibition [KRAS2]
Details: for IC50: curve of first compound; for viability, T/C: stronger effect = lower value
Outline: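 KRAS-mutant tumor cells were grown as spheroids with HUVEC endothelial cells and human MSCs as stroma. Targeted agents were tested alone and with KRAS pathway inhibitors. Doses started at or near clinical Cmax, or 10 microM, descending half-log.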

[1] = second compound 0.1 µM, first compound 0.0316 µM
[2] = second compound 0.1 µM, first compound 0.1 µM
[3] = second compound 0.1 µM, first compound 0.316 µM
[4] = second compound 0.1 µM, first compound 1 µM
[5] = second compound 0.316 µM, first compound 0.0316 µM
[6] = second compound 0.316 µM, first compound 0.1 µM
[7] = second compound 0.316 µM, first compound 0.316 µM
[8] = second compound 0.316 µM, first compound 1 µM
[9] = second compound 1 µM, first compound 0.0316 µM
[10] = second compound 1 µM, first compound 0.1 µM
[11] = second compound 1 µM, first compound 0.316 µM
[12] = second compound 1 µM, first compound 1 µM
[13] = second compound 3.16 µM, first compound 0.0316 µM
[14] = second compound 3.16 µM, first compound 0.1 µM
[15] = second compound 3.16 µM, first compound 0.316 µM
[16] = second compound 3.16 µM, first compound 1 µM
[17] = second compound 10 µM, first compound 0.0316 µM
[18] = second compound 10 µM, first compound 0.1 µM
[19] = second compound 10 µM, first compound 0.316 µM
[20] = second compound 10 µM, first compound 1 µM
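Further: spheroids exposed to agents for seven days before readout.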

CC(C)NCC(C(=O)N1CCN(c2ncnc3c2C(C)CC3O)CC1)c1ccc(Cl)cc1 (stereo not given) + C=CC(=O)N1CCN(c2nc(=O)n(-c3c(C)ccnc3C(C)C)c3nc(-c4c(O)cccc4F)c(F)cc23)C(C)C1
IC50 (second compound 0.1 µM): < 0.0316 µM
IC50 (second compound 0.316 µM): < 0.0316 µM
IC50 (second compound 1 µM): < 0.0316 µM
IC50 (second compound 3.16 µM): < 0.0316 µM
IC50 (second compound 10 µM): < 0.0316 µM
viability, T/C [1]: 19.7%
viability, T/C [2]: 20.1%
viability, T/C [3]: 19.6%
viability, T/C [4]: 15.3%
viability, T/C (second compound 0.1 µM, first compound 3.16 µM): 9.91%
viability, T/C (second compound 0.1 µM, first compound 10 µM): 4.14%
viability, T/C [5]: 24.7%
viability, T/C [6]: 19.5%
viability, T/C [7]: 20%
viability, T/C [8]: 15.2%
viability, T/C (second compound 0.316 µM, first compound 3.16 µM): 9.83%
viability, T/C (second compound 0.316 µM, first compound 10 µM): 4.08%
viability, T/C [9]: 22.6%
viability, T/C [10]: 22.4%
viability, T/C [11]: 13.9%
viability, T/C [12]: 16%
viability, T/C (second compound 1 µM, first compound 3.16 µM): 12%
viability, T/C (second compound 1 µM, first compound 10 µM): 5.09%
viability, T/C [13]: 24.1%
viability, T/C [14]: 25.8%
viability, T/C [15]: 20.3%
viability, T/C [16]: 16%
viability, T/C (second compound 3.16 µM, first compound 3.16 µM): 10.6%
viability, T/C (second compound 3.16 µM, first compound 10 µM): 4.7%
viability, T/C [17]: 25.9%
viability, T/C [18]: 21.5%
viability, T/C [19]: 18.6%
viability, T/C [20]: 14.9%
viability, T/C (second compound 10 µM, first compound 3.16 µM): 6.4%
viability, T/C (second compound 10 µM, first compound 10 µM): 4.57%

CCN1CCN(Cc2ccc(Nc3ncc(F)c(-c4cc(F)c5nc(C)n(C(C)C)c5c4)n3)nc2)CC1 + C=CC(=O)N1CCN(c2nc(=O)n(-c3c(C)ccnc3C(C)C)c3nc(-c4c(O)cccc4F)c(F)cc23)C(C)C1
IC50 (second compound 0.1 µM): < 0.00316 µM
IC50 (second compound 0.316 µM): < 0.00316 µM
IC50 (second compound 1 µM): < 0.00316 µM
IC50 (second compound 3.16 µM): < 0.00316 µM
IC50 (second compound 10 µM): < 0.00316 µM
viability, T/C (second compound 0.1 µM, first compound 0.00316 µM): 17.4%
viability, T/C (second compound 0.1 µM, first compound 0.01 µM): 18.3%
viability, T/C [1]: 16.5%
viability, T/C [2]: 15.9%
viability, T/C [3]: 15.1%
viability, T/C [4]: 18.5%
viability, T/C (second compound 0.316 µM, first compound 0.00316 µM): 19.1%
viability, T/C (second compound 0.316 µM, first compound 0.01 µM): 18.1%
viability, T/C [5]: 17.1%
viability, T/C [6]: 16.8%
viability, T/C [7]: 14.7%
viability, T/C [8]: 15.9%
viability, T/C (second compound 1 µM, first compound 0.00316 µM): 22.2%
viability, T/C (second compound 1 µM, first compound 0.01 µM): 22.2%
viability, T/C [9]: 19.5%
viability, T/C [10]: 17.1%
viability, T/C [11]: 17.2%
viability, T/C [12]: 19.8%
viability, T/C (second compound 3.16 µM, first compound 0.00316 µM): 22.7%
viability, T/C (second compound 3.16 µM, first compound 0.01 µM): 24.2%
viability, T/C [13]: 19.6%
viability, T/C [14]: 18.9%
viability, T/C [15]: 21.9%
viability, T/C [16]: 19.2%
viability, T/C (second compound 10 µM, first compound 0.00316 µM): 27.8%
viability, T/C (second compound 10 µM, first compound 0.01 µM): 29.9%
viability, T/C [17]: 25%
viability, T/C [18]: 29.8%
viability, T/C [19]: 27.9%
viability, T/C [20]: 16.3%
